Results as given in patent US6956113B2 (priority 2000, dated 2005).

Tested on: bioluminescent Salmonella tester strains (his- cells)

[N-]=[N+]=[N-] [NaN, sodium azide]
bioluminescent revertants after independent exposure (mutagenicity): detection of bioluminescent revertants
